Source: ChEMBL document CHEMBL5338724, “METTL3 from Target Validation to the First Small-Molecule Inhibitors: A Medicinal Chemistry Journey” (J Med Chem, 2023)

What was measured:
[1] = test system: MOLM-13; test: Antiproliferative activity against human MOLM-13 cells assessed as inhibition of cell proliferation incubated for 96 hrs by Cell Titer-Glo reagent assay; assay type: functional, cell-based; conditions: MOLM-13, 96 h
[2] = biological target: T1, METTL3/METTL14 (Homo sapiens, UniProt Q86U44); test: Inhibition of METTL3/METTL14 (unknown origin) using biotinylated RNA (UCUGGACUAAA-biotin) and 3H-SAM as substrate preincubated for 5 mins followed by substrate addition and measured after 30 mins by scintillation counter analysis; assay type: protein-complex assay
[3] = test system: MOLM-13; test: Antiproliferative activity against human MOLM-13 cells assessed as inhibition of cell proliferation incubated for 48 hrs by Cell Titer-Glo reagent assay; assay type: functional, cell-based; conditions: MOLM-13, 48 h
[4] = biological target: T2, N6-adenosine-methyltransferase catalytic subunit (Homo sapiens, UniProt Q86U44); test: Inhibition of METTL3 in human MOLM-13 cells assessed as decrease in cellular m6A mRNA level incubated for 24 hrs by NanoDrop spectrophotometer based LC-MS/MS analysis; assay type: cell-based
[5] = biological target: T1, METTL3/METTL14; test: Inhibition of METTL3/METTL14 (unknown origin); assay type: protein-complex assay
[6] = biological target: T1, METTL3/METTL14; test: Inhibition of METTL3/METTL14 (unknown origin) using RNA 5'-GGACUGGACUGGACU-3' as substrate incubated for 2 hrs by LC-MS/MS analysis; assay type: protein-complex assay
[7] = test system: Caov-3 cell line; test: Antiproliferative activity against human Caov-3 cell line assessed as inhibition of cell proliferation incubated for 120 hrs by CellTiter-Glo assay; assay type: functional, cell-based; conditions: Caov-3, 120 h
[8] = test system: Kasumi 1; test: Antiproliferative activity against human Kasumi 1 cells assessed as inhibition of cell proliferation incubated for 120 hrs by CellTiter-Glo assay; assay type: functional, cell-based; conditions: Kasumi 1, 120 h
[9] = test system: MOLM-13; test: Antiproliferative activity against human MOLM-13 cells assessed as inhibition of cell proliferation and measured after 7 days by CellTiter-Glo assay; assay type: functional, cell-based; conditions: MOLM-13, 168 h
[10] = test system: Caov-3 cell line; test: Antiproliferative activity against human Caov-3 cell line assessed as inhibition of cell proliferation and measured after 7 days by CellTiter-Glo assay; assay type: functional, cell-based; conditions: Caov-3, 168 h
[11] = test system: MOLM-13; test: Antiproliferative activity against human MOLM-13 cells assessed as decrease cell proliferation; assay type: functional, cell-based
[12] = biological target: T2, N6-adenosine-methyltransferase catalytic subunit
[13] = biological target: T1, METTL3/METTL14; test: Competive inhibition of full length human METTL3/METTL14 expressed in Sf9 cells using single strand RNA 5'-AAGAACCGGACUAAGCU-3' and SAM as substrate incubated for 40 mins by HTRF assay
[14] = biological target: T1, METTL3/METTL14; test: Inhibition of full-length His-tagged METTL3/full length FLAG-tagged METTL14 (unknown origin) expressed in baculovirus expression system using synthetic RNA 5'P-uacacucgaucuggacuaaagcugcuc-3' and SAM as substrate preincubated for 10 mins followed by substrate addition and measured after 60 mins by RF/MS analysis
[15] = biological target: METTL3/METTL14 (Homo sapiens) (UniProt Q86U44+Q9HCE5); test: Inhibition of METTL3/METTL14 (unknown origin) at 60 uM relative to control; assay type: protein-complex assay

| SMILES | IC50 [2] [µM] | IC50 [4] [µM] | IC50 [1] [µM] | further results |
| --- | --- | --- | --- | --- |
| Cn1ccc(-c2cn([C@@H]3O[C@H](COc4ccc5ccc(N6CCC6)nc5c4)[C@@H](O)[C@@H]3F)c3ncnc(N)c23)n1 | < 0.01 | < 1 | < 10 | IC50 [3]: < 10 µM |
| O=C(O)c1ccccc1OCCc1cn(C(c2ccccc2)c2ccccc2)c2ccc(Cl)cc12 |  |  |  | IC50 [5]: 13 µM |
| O=c1cc(-c2ccc(O)c(O)c2)oc2cc(O)cc(O)c12 [LUTEOLIN] |  |  |  | IC50 [6]: 6.23 µM |
| Cc1c(CCOc2ccc(C(=O)O)cc2)c2cc(Cl)ccc2n1C(c1ccccc1)c1ccccc1 |  |  |  | IC50 [5]: 17.3 µM |
| COc1cc(-c2cn(Cc3cn4cc(CNCC56CC(F)(C5)C6)ccc4n3)nn2)c2cncn2c1 |  |  |  | IC50 [7]: 0.305 µM; IC50 [8]: 1.15 µM |
| COc1ccc2[nH]ncc2c1-c1cn(Cc2cn3cc(CNCC4CCC4)ccc3n2)nn1 |  |  |  | IC50 [9]: 1.17 µM; IC50 [10]: 0.558 µM |
| O=C(O)c1ccccc1OCCc1cn(-c2cccc(-c3ccccc3)c2)c2ccc(-c3ccc(F)cc3)cc12 |  |  |  | EC50 [11]: 29.9 µM; IC50 [5]: 2.74 µM |
| Cn1ccc(-c2cn([C@H]3C[C@H](O)[C@@H](COc4ccc5ccc(N6CCC6)nc5c4)O3)c3ncnc(N)c23)n1 | < 0.01 | < 1 | < 10 | IC50 [3]: < 10 µM |
| Nc1ncnc2c1ccn2[C@@H]1C[C@H](c2ccc3cc(CN4CCC5(CCC5)C4)[nH]c3c2)[C@@H](O)[C@H]1O (single isomer, unassigned) |  |  |  | IC50 [7]: 0.25 µM; IC50 [8]: 0.95 µM |
| COc1cc2c(cc1Cc1cccc(Cl)c1F)c(=O)c(C(=O)O)cn2[C@H](CO)C(C)C |  |  |  | Kd [12]: 0.00479 µM |
| Nc1ncnc2c1ncn2C[C@H]1OC[C@@H](O)[C@@H](O)[C@H]1O |  |  |  | IC50 [13]: > 250 µM |
| Nc1ncnc2c1c(-n1cccn1)cn2[C@@H]1O[C@H](COc2ccc3ccc(N4CCC4)nc3c2)[C@@H](O)[C@@H]1F | < 0.01 |  | < 10 | IC50 [3]: < 10 µM |
| Clc1cc(-c2cn(Cc3cn4cc(CNCC5CCC5)ccc4n3)nn2)c2cn[nH]c2c1 |  |  |  | IC50 [14]: 0.00435 µM |
| Cn1ccc(-c2cn([C@@H]3O[C@H](COc4ccc5ccc(NC6CCC6)nc5c4)[C@@H](O)[C@@H]3F)c3ncnc(N)c23)n1 | < 0.01 | < 1 | < 10 | IC50 [3]: < 10 µM |
| COC(=O)c1cccc(-c2cccc(N/N=C3\C(=O)N(c4ccc(C)c(C)c4)N=C3C)c2O)c1 |  |  |  | inhibition [15]: 23.7% |
| O=C(O)c1ccccc1OCCc1cn(-c2ccc(-c3ccccc3)cc2)c2ccc(-c3ccc(F)cc3)cc12 |  |  |  | EC50 [11]: 32.5 µM; IC50 [5]: 2.95 µM |

More lines, main results first:

| IC50 [2] [µM] | IC50 [4] [µM] | SMILES | IC50 [1] [µM] | further results |
| --- | --- | --- | --- | --- |
| < 0.01 | < 1 | CCc1cc(NCCOC)c2ccc(CCc3cncc(-n4cc(-c5ccn(C)n5)c5c(N)ncnc54)c3)cc2n1 | < 10 |  |
| < 0.01 | < 1 | CCc1cc(N(C)CCOC)c2ccc(CCc3cncc(-n4cc(-c5ccn(C)n5)c5c(N)ncnc54)c3)cc2n1 | < 10 |  |
| < 0.01 | < 1 | CNc1ccc2ccc(OC[C@H]3O[C@@H](n4cc([C@@H]5CCCO5)c5c(N)ncnc54)[C@@H](F)[C@@H]3O)cc2n1 | < 10 | IC50 [3]: < 10 µM |
| < 0.01 | < 1 | CNc1ccc2ccc(OCc3cncc(-n4cc([C@@H]5CCCO5)c5c(N)ncnc54)c3)cc2n1 | < 10 |  |
| < 0.01 | < 1 | CNc1ccc2ccc(CCc3cncc(-n4cc(-c5ccn(C)n5)c5c(N)ncnc54)c3)cc2n1 |  | IC50 [3]: < 1 µM |
